Results on 59 compounds are retold here after patent US9029409B2, “Isoxazolines as therapeutic agents” (AbbVie Inc., priority 2011, dated 2015).

A word on the IC50: it is the concentration needed to halve the response being measured.

In the test the target is T1, recombinant human MMP13 catalytic domain (CD) (Homo sapiens, UniProt P45452).
T1 construct: catalytic domain (CD) construct encompassing residues 20-274 (SWISS-PROT P45452); made in house
The test can be described thus: MMP-13 catalytic domain FRET enzyme assay. The format is biochemical. The note with it: recombinant human MMP-13 catalytic domain. The method, boiled down: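 Human MMP-13 catalytic domain (res 20-274, E. coli-expressed), 0.4 nM, cleaving FRET peptide (0.25 μM) in Tris pH 7.5/CaCl2/NaCl/Brij 35, 5% DMSO, 60 min RT; EDTA-quenched, fluorescence 485/535 nm. IC50 from sigmoidal fit of % inhibition. Some compounds also run on APMA-activated full-length MMP13 (2 nM).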
Regarding `COc1cc(CNC(=O)c2cc(C3=NOC(C4CCN(C(=O)NCCO)CC4)C3)nc(C)n2)ccc1F` (centres unmarked) [drawing 888], the IC50 is under 0.01 µM. For the compound `COc1cc(CNC(=O)c2cc(C3=NO[C@H]([C@H]4CO[C@H](C(C)(C)O)CO4)C3)nc(C)n2)ccc1F`, the IC50 was in the range of 0.01 to 0.1 µM.

For `COc1cc(CNC(=O)c2cc(C3=NO[C@H]([C@H]4CO[C@H](CNC(=O)CC#N)CO4)C3)nc(C)n2)ccc1F`, the IC50 is under 0.01 µM. Turning to `COc1cc(CNC(=O)c2cc(C3=NOC(c4cn[nH]c4)C3)nc(C)n2)ccc1F` (centres unmarked), the IC50 lay in the range of 0.01 to 0.1 µM. For the compound `COc1cc(CNC(=O)c2cc(C3=NO[C@@H]([C@H]4CC[C@H](NC(=O)[C@H](C)O)CC4)C3)nc(C)n2)ccc1F`, the IC50 lay within 0.01 to 0.1 µM. Consider `COc1cc(CNC(=O)c2cc(C3=NOC([C@H]4CC[C@H](NC(=O)C(C)(C)O)CC4)C3)nc(C)n2)ccc1F` (some centres unmarked), for which the IC50 lay within 0.01 to 0.1 µM. Take `COc1cc(CNC(=O)c2cc(C3=NOC(CN4CCC(CO)C4)C3)nc(C)n2)ccc1F` (centres unmarked): the IC50 was over 1 µM.

Take `CNC(=O)N[C@H]1CC[C@H](C2CC(c3cc(C(=O)NCc4ccc(F)c(OC)c4)nc(C)n3)=NO2)CC1` (some centres unmarked): the IC50 was under 0.01 µM. The value for `CNC(=O)c1cccc(C2CC(c3cc(C(=O)NCc4ccc(F)c(OC)c4)nc(C)n3)=NO2)c1` (centres unmarked) was 0.01 to 0.1 µM; that for `CC(=O)N[C@H]1CC[C@H]([C@@H]2CC(c3cc(C(=O)NCc4ccc5c(c4)NC(=O)CO5)nc(C)n3)=NO2)CC1` was under 0.01 µM; that for `CC(=O)N[C@H]1CC[C@H]([C@H]2CC(c3cc(C(=O)NCc4ccc5c(c4)NC(=O)CO5)nc(C)n3)=NO2)CC1` was under 0.01 µM. In the case of `COc1cc(CNC(=O)c2cc(C3=NOC(C4CCN(C(=O)CN(C)C)CC4)C3)nc(C)n2)ccc1F` (centres unmarked), the IC50 was 0.01 to 0.1 µM. With `COc1cc(CNC(=O)c2cc(C3=NOC(c4cc(Cl)c(=O)n(C5CC5)c4)C3)nc(C)n2)ccc1F` (centres unmarked), the IC50 is under 0.01 µM. `COc1cc(CNC(=O)c2cc(C3=NOC(c4ccc(CN5CCOCC5)cc4)C3)nc(C)n2)ccc1F` (centres unmarked): the IC50 was in the range of 0.01 to 0.1 µM. Take `COc1cccc(CNC(=O)c2cc(C3=NO[C@@H]([C@@H]4CO[C@@H](CO)CO4)C3)nc(C)n2)c1`: the IC50 was over 1 µM.

For the compound `Cc1nc(C(=O)NCc2ccc(F)c(C)c2)cc(C2=NOC(c3ccc(=O)n(C)c3)C2)n1` (centres unmarked) [drawing 990], the IC50 is under 0.01 µM. On to `Cc1nc(C(=O)NCc2ccc(F)cc2)cc(C2=NO[C@@H]([C@H]3CO[C@H](CO)CO3)C2)n1`, for which the IC50 is over 1 µM.

For the compound `COc1cc(CNC(=O)c2cc(C3=NOC(c4cccc(C(N)=O)c4)C3)nc(C)n2)ccc1F` (centres unmarked), the IC50 was under 0.01 µM.

As to `COc1cc(CNC(=O)c2cc(C3=NOC(c4cnc(S(C)(=O)=O)cn4)C3)nc(C)n2)ccc1F` (centres unmarked), the IC50 was 0.01 to 0.1 µM. On to `COc1cc(CNC(=O)c2cc(C3=NOC(c4ccc(=O)n(C5CC5)n4)C3)nc(C)n2)ccc1F` (centres unmarked), for which the IC50 was 0.01 to 0.1 µM. In the case of `COc1cc(CNC(=O)c2cc(C3=NOC(c4ccc(S(C)(=O)=O)nn4)C3)nc(C)n2)ccc1F` (centres unmarked) it was 0.01 to 0.1 µM. In the case of `COc1cc(CNC(=O)c2cc(C3=NOC(c4ccc(CO)cn4)C3)nc(C)n2)ccc1F` (centres unmarked) it was under 0.01 µM.

Regarding `COc1cccc(CNC(=O)c2cc(C3=NO[C@H]([C@@H]4CO[C@@H](CO)CO4)C3)nc(C)n2)c1`, the IC50 lay within 0.01 to 0.1 µM. Take `CNC(=O)c1ccc(C2CC(c3cc(C(=O)NCc4ccc(F)c(OC)c4)nc(C)n3)=NO2)cc1` (centres unmarked): the IC50 is under 0.01 µM. As for `Cc1nc(C(=O)NCc2ccc(=O)n(C)c2)cc(C2=NO[C@@H]([C@H]3CO[C@H](CO)CO3)C2)n1`, the IC50 lay in the range of 0.1 to 1 µM. On to `Cc1nc(C(=O)NCc2ccc(F)cc2)cc(C2=NO[C@@H]([C@@H]3CO[C@@H](CO)CO3)C2)n1`, for which the IC50 was over 1 µM. In the case of `COc1ccc(CNC(=O)c2cc(C3CC(c4ccc(OCCO)cc4)=NO3)nc(C)n2)cc1` (centres unmarked) it was 0.01 to 0.1 µM. Consider `COc1cc(CNC(=O)c2cc(C3=NOC(c4cccnc4)C3)nc(C)n2)ccc1F` (centres unmarked), for which the IC50 was under 0.01 µM. The value for `COc1cc(CNC(=O)c2cc(C3=NOC(CN4CCN(C(C)=O)CC4)C3)nc(C)n2)ccc1F` (centres unmarked) was over 1 µM; that for `COc1cc(CNC(=O)c2cc(C3=NO[C@H]([C@@H]4CO[C@@H](C(=O)O)CO4)C3)nc(C)n2)ccc1F` was 0.01 to 0.1 µM. `COc1cc(CNC(=O)c2cc(C3=NO[C@H]([C@H]4CO[C@H](C(=O)O)CO4)C3)nc(C)n2)ccc1F`: the IC50 is under 0.01 µM. In the case of `COc1cc(CNC(=O)c2cc(C3=NO[C@@H](c4ccc(=O)n(C)c4)C3)nc(C)n2)ccc1F` it was 0.1 to 1 µM; in that of `Cc1nc(C(=O)NCc2ccncc2)cc(C2=NO[C@@H]([C@H]3CO[C@H](CO)CO3)C2)n1`, over 1 µM. In the case of `COc1cc(CNC(=O)c2cc(C3=NOC([C@H]4CC[C@H](NC(=O)N(C)CCO)CC4)C3)nc(C)n2)ccc1F` (some centres unmarked) it was under 0.01 µM; in that of `Cc1nc(C(=O)NCc2ccc(F)c(F)c2)cc(C2=NO[C@@H](c3ccc(=O)n(C)c3)C2)n1`, 0.1 to 1 µM. On to `COc1cc(CNC(=O)c2cc(C3=NO[C@H]([C@H]4CC[C@H](NC(C)=O)CC4)C3)nc(C)n2)ccc1F` [drawing 1031], for which the IC50 was under 0.01 µM. On to `Cc1nc(C(=O)NCc2ccc(F)c(Cl)c2)cc(C2=NO[C@H]([C@H]3CC[C@H](NC(=O)[C@H](C)O)CC3)C2)n1`, for which the IC50 is under 0.01 µM. The value for `COc1cc(CNC(=O)c2cc(C3=NOC([C@H]4CC[C@H](NC(=O)[C@H](C)O)CC4)C3)nc(C)n2)ccc1F` (some centres unmarked) was under 0.01 µM; that for `COc1cc(CNC(=O)c2cc(C3=NOC(C4CCN(S(=O)(=O)C5CC5)CC4)C3)nc(C)n2)ccc1F` (centres unmarked) was 0.01 to 0.1 µM; that for `COc1cc(CNC(=O)c2cc(C3=NOC(c4ccccc4)C3)c(=O)n(C)n2)ccc1F` (centres unmarked) was 0.01 to 0.1 µM.

With `CNC(=O)N1CCC(C2CC(c3cc(C(=O)NCc4ccc(F)c(OC)c4)nc(C)n3)=NO2)CC1` (centres unmarked), the IC50 was under 0.01 µM.

Consider `CNC(=O)Cn1cc(C2CC(c3cc(C(=O)NCc4ccc(F)c(OC)c4)nc(C)n3)=NO2)cc(Cl)c1=O` (centres unmarked), for which the IC50 was under 0.01 µM. The value for `COc1cc(CNC(=O)c2cc(C3=NOC(C4CCN(S(=O)(=O)c5cn(C)c(C)n5)CC4)C3)nc(C)n2)ccc1F` (centres unmarked) was under 0.01 µM; that for `Cc1nc(C(=O)NCc2ccc(F)c(F)c2)cc(C2=NO[C@H](c3ccc(=O)n(C)c3)C2)n1` was under 0.01 µM. Consider `COc1cc(CNC(=O)c2cc(C3=NOC(C4CCCCC4)C3)nc(C)n2)ccc1F` (centres unmarked), for which the IC50 was under 0.01 µM. With `CNC(=O)Cn1cc([C@@H]2CC(c3cc(C(=O)NCc4ccc(F)c(OC)c4)nc(C)n3)=NO2)ccc1=O`, the IC50 is under 0.01 µM. In the case of `COc1cc(CNC(=O)c2cc(C3=NOC(c4cc(-c5nc(C)no5)nn4C)C3)nc(C)n2)ccc1F` (centres unmarked), the half-maximal inhibitory concentration (IC50) lay within 0.01 to 0.1 µM. With `COc1cc(CNC(=O)c2cc(C3=NOC(C4CCN(S(=O)(=O)c5cn(C)cn5)CC4)C3)nc(C)n2)ccc1F` (centres unmarked), the IC50 was under 0.01 µM. The value for `Cc1nc(C(=O)NCc2ccc(F)cc2)cc(C2=NO[C@H]([C@H]3CO[C@H](CO)CO3)C2)n1` was 0.01 to 0.1 µM. As for `COc1cc(CNC(=O)c2cc(C3=NNC(c4cccnc4)C3)nc(C)n2)ccc1F` (centres unmarked), the 50% inhibitory concentration (IC50) fell in the range of 0.01 to 0.1 µM. In the case of `COc1cc(CNC(=O)c2cc(C3=NOC(C4CCN(S(=O)(=O)c5nccn5C)CC4)C3)nc(C)n2)ccc1F` (centres unmarked) it was under 0.01 µM; in that of `Cc1nc(C(=O)NCc2ccc(F)cc2)cc(C2=NOC(c3ccc(C#N)nn3)C2)n1` (centres unmarked), 0.01 to 0.1 µM. In the case of `Cc1nc(C(=O)NCc2ccc(F)c(C)c2)cc(C2=NO[C@H]([C@H]3CO[C@H](CO)CO3)C2)n1` it was 0.1 to 1 µM; in that of `CNC(=O)c1ccc(C2CC(c3cc(C(=O)NCc4ccc(F)c(OC)c4)nc(C)n3)=NO2)nn1` (centres unmarked), 0.01 to 0.1 µM; in that of `COc1cc(CNC(=O)c2cc(C3=NOC(c4cnc5c(cnn5C)c4)C3)nc(C)n2)ccc1F` (centres unmarked), 0.01 to 0.1 µM. Take `COc1cc(CNC(=O)c2cc(C3=NOC(c4ccc(=O)n(CCO)c4)C3)nc(C)n2)ccc1F` (centres unmarked): the IC50 lay within 0.01 to 0.1 µM.

Take `Cc1nc(C(=O)NCc2ccc(F)c(C)c2)cc(C2=NOC(C3CCN(C(=O)CO)CC3)C2)n1` (centres unmarked): the IC50 fell in the range of 0.01 to 0.1 µM.

Regarding `COc1cc(CNC(=O)c2cc(C3=NO[C@@H]([C@H]4CO[C@H](CO)CO4)C3)nc(C)n2)ccc1F` [drawing 837], the IC50 is 0.1 to 1 µM. For the compound `COc1ccc(CNC(=O)c2cc(C3=NOC(c4ccc(OC)cc4)C3)ccn2)cc1` (centres unmarked), the concentration for half-maximal inhibition (IC50) was in the range of 0.1 to 1 µM.
